Results on 11 molecules are retold here after patent publication US20240294488A1, “ISOTOPOLOGES, SALTS, CRYSTALLINE FORMS, STEREOISOMERS, OF METHYLONE AND ETHYLONE AND METHODS OF USE THEREOF” (Terran Biosciences Inc., priority 2021, published 2024).

Series [1] is described as follows: Metabolic stability in human liver microsomes. The series is classed as in vitro ADME. To be noted: for difference in half-life and intrinsic clearance compared with the non-deuterated methylone hydrochloride: human liver microsomes; for half-life at 1 μM / microsomal CLint at 1 μM: pooled liver microsomes, pH 7.4, human liver microsomes 0.5 mg/mL, 1 μM compound, NADPH, 0-45 min. On the procedure:
Pooled liver microsomes are purchased from a reputable commercial supplier. Microsomes are stored at […] prior to use. Microsomes (final protein concentration 0.5 mg/mL), 0.1 M phosphate buffer pH 7.4 and test compound (final substrate concentration 1 μM; final DMSO concentration 0.25%) are preincubated at 37° C. prior to the addition of NADPH (final concentration 1 mM) to initiate the reaction. A minus cofactor control incubation is included for each compound tested where 0.1 M phosphate buffer pH 7.4 is added instead of NADPH (minus NADPH). Two control compounds are included with each species. All incubations are performed singularly for each test compound. Each compound is incubated for 0, 5, 15, 30 and 45 min. The control (minus NADPH) is incubated for 45 min only. The reactions are stopped by transferring incubate into acetonitrile at the appropriate time points, in a 1:3 ratio. The termination plates are centrifuged at 3,000 rpm for 20 min at 4° C. to precipitate the protein.
From a plot of ln peak area ratio (compound peak area/internal standard peak area) against time, the gradient of the line is determined. Subsequently, half-life and intrinsic clearance are calculated using the equations below:
where V=Incubation volume (μL)/Microsomal protein (mg)
Relevant control compounds were assessed, ensuring intrinsic clearance values fall within the specified limits (if available).

The conditions of series [2]: cited from earlier work.
Another series relates to C57/BL6J mice. The series is described as follows: Forced swim test (FST). Conditions: 24 h after administration. The series is classed as in vivo, mouse. On the procedure: As increased cortical structural plasticity in the anterior parts of the brain mediates the sustained (>24 h) antidepressant-like effects of ketamine and play a role in the therapeutic effects of 5-HT2A agonists, the impact of the present compounds on forced swim test (FST) behavior is evaluated. First, a pretest is used to induce a depressive phenotype. Compounds are administered 24 h after the pre-test, and the FST is performed 24 h and 7 d post compound administration.
Male C57/BL6J mice (9-10 weeks old at time of experiment) are obtained. After 1 week in the vivarium each mouse is handled for approximately 1 minute by the experimenter for 3 consecutive days leading up to the first FST. All experiments are carried out by the same experimenter who performs handling. During the FST, mice undergo a 6 min swim session in a clear Plexiglas cylinder 40 cm tall, 20 cm in diameter, and filled with 30 cm of 24±1° C. water. […] Immobility scores for all mice are determined after the pre-test and mice are randomly assigned to treatment groups to generate groups with similar average immobility scores to be used for the following two FST sessions. […] Experiments are video-recorded and manually scored offline. Immobility time—defined as passive floating or remaining motionless with no activity other than that needed to keep the mouse's head above water—is scored for the last 4 min of the 6 min trial.

The half-life is how long it takes for the measured level to halve. High values mean slow loss, low ones fast loss. As a reminder, the microsomal CLint is the rate of metabolic loss divided by the concentration. A low value points to greater metabolic stability. `Cl.[2H]C1([2H])Oc2ccc(C(=O)[C@H](C)NC)cc2O1` [(S)-Methylone-d2 hydrochloride, (S)-1-(benzo[d][1,3]dioxol-5-yl-2,2-d2)-2-(methylamino)propan-1-one hydrochloride]: in series [1], the “difference in half-life and intrinsic clearance compared with the non-deuterated methylone hydrochloride” value is “demonstrated differences in half-life and intrinsic clearance”; the half-life at 1 μM is 2.45 h; the microsomal CLint at 1 μM is 9.41 µL/min/mg.
Take `CNC(C)C(=O)c1ccc2c(c1)OCO2` (stereo not drawn) [Methylone, 3,4-methylenedioxy-N-methylcathinone]: the “Oral Methylone Dose, Drug Activity Level Very Strong” value in series [2] (oral, modified from WHO 2014) is recorded as no less than 270 mg. Besides, in series [2] (re-dose of one-third to one-half the initial dose, WHO 2014), the “effect of re-dose on duration of effects” value was “prolongs duration for approximately one hour”.
Take `Cl.[2H]C([2H])([2H])NC(C)C(=O)c1ccc2c(c1)OCO2` (racemic) [(rac)-Methylone-d3 hydrochloride, 1-(benzo[d][1,3]dioxol-5-yl)-2-((methyl-d3)amino)propan-1-one HCl]: in series [1], the “difference in half-life and intrinsic clearance compared with the non-deuterated methylone hydrochloride” value was “demonstrated differences in half-life and intrinsic clearance”; the half-life at 1 μM came out at 2.88 h; the microsomal CLint at 1 μM is 8.02 µL/min/mg.
With `CNC1(c2ccccc2Cl)CCCCC1=O` (stereo not drawn) [ketamine], the “immobility in forced swim test” value in the series on C57/BL6J mice is “significantly reduced immobility”.
As for `Cl.[2H]C1([2H])Oc2ccc(C(=O)[C@@H](C)NC)cc2O1` [(R)-Methylone-d2 hydrochloride, (R)-1-(benzo[d][1,3]dioxol-5-yl-2,2-d2)-2-((methyl)amino)propan-1-one HCl], in series [1], the “difference in half-life and intrinsic clearance compared with the non-deuterated methylone hydrochloride” value was “demonstrated differences in half-life and intrinsic clearance”; the half-life at 1 μM was 3.3 h; the microsomal CLint at 1 μM was 7 µL/min/mg.
With `Cl.[2H]C([2H])([2H])N[C@@H](C)C(=O)c1ccc2c(c1)OC([2H])([2H])O2` [(S)-Methylone-d5 hydrochloride, (S)-1-(benzo[d][1,3]dioxol-5-yl-2,2-d2)-2-((methyl-d3)amino)propan-1-one hydrochloride], in series [1], the “difference in half-life and intrinsic clearance compared with the non-deuterated methylone hydrochloride” value was “the most significant difference in half-life and intrinsic clearance”; the half-life at 1 μM was 2.55 h; the microsomal CLint at 1 μM was 9.07 µL/min/mg.
`Cl.[2H]C([2H])([2H])N[C@H](C)C(=O)c1ccc2c(c1)OC([2H])([2H])O2` [(R)-Methylone-d5 hydrochloride, (R)-1-(benzo[d][1,3]dioxol-5-yl-2,2-d2)-2-((methyl-d3)amino)propan-1-one hydrochloride]: in series [1], the “difference in half-life and intrinsic clearance compared with the non-deuterated methylone hydrochloride” value is “the most significant difference in half-life and intrinsic clearance”; the half-life at 1 μM stood at 3.68 h; the microsomal CLint at 1 μM was 6.27 µL/min/mg.
As to `Cl.[2H]C([2H])([2H])N[C@@H](C)C(=O)c1ccc2c(c1)OCO2` [(S)-Methylone-d3 hydrochloride, (S)-1-(benzo[d][1,3]dioxol-5-yl)-2-((methyl-d3)amino)propan-1-one HCl], in series [1], the “difference in half-life and intrinsic clearance compared with the non-deuterated methylone hydrochloride” value is “demonstrated differences in half-life and intrinsic clearance”; the half-life at 1 μM was 2.4 h; the microsomal CLint at 1 μM stood at 9.6 µL/min/mg.
For the molecule `Cl.[2H]C([2H])([2H])N[C@H](C)C(=O)c1ccc2c(c1)OCO2` [(R)-Methylone-d3 hydrochloride, (R)-1-(benzo[d][1,3]dioxol-5-yl)-2-((methyl-d3)amino)propan-1-one HCl], in series [1], the “difference in half-life and intrinsic clearance compared with the non-deuterated methylone hydrochloride” value is “demonstrated differences in half-life and intrinsic clearance”; the half-life at 1 μM is 3.57 h; the microsomal CLint at 1 μM worked out at 6.49 µL/min/mg.
On to `Cl.[2H]C1([2H])Oc2ccc(C(=O)C(C)NC)cc2O1` (racemic) [(rac)-Methylone-d2 hydrochloride, 1-(benzo[d][1,3]dioxol-5-yl-2,2-d2)-2-((methyl)amino)propan-1-one HCl], for which, in series [1], the “difference in half-life and intrinsic clearance compared with the non-deuterated methylone hydrochloride” value was “demonstrated differences in half-life and intrinsic clearance”; the half-life at 1 μM amounted to 2.45 h; the intrinsic clearance (microsomal CLint) at 1 μM stood at 9.46 µL/min/mg.
Turning to `Cl.[2H]C([2H])([2H])NC(C)C(=O)c1ccc2c(c1)OC([2H])([2H])O2` (racemic) [(rac)-Methylone-d5 hydrochloride, 1-(benzo[d][1,3]dioxol-5-yl-2,2-d2)-2-((methyl-d3)amino)propan-1-one HCl], in series [1], the “difference in half-life and intrinsic clearance compared with the non-deuterated methylone hydrochloride” value is “the most significant difference in half-life and intrinsic clearance”; the half-life at 1 μM stood at 3.05 h; the microsomal CLint at 1 μM was determined as 7.59 µL/min/mg.
